Results published in PubChem BioAssay AID1963435 (Molecular Pharmacology Branch, DTP, NCI, 2024).

Test system: PANC-1 complex spheroid growth, percent test/control
Experiment: Anticancer human tumor PANC-1 cell line growth inhibition [Asc];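 note: spheroids exposed to agents for 7 days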;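 for viability, T/C: percent viability relative to DMSO vehicle wells taken as 100%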
Conditions: for IC50: curve of first compound; for viability, T/C: stronger effect = lower value
Description: Multicellular complex tumor spheroid response to apoptosis pathway targeting inhibitors Alrizomadlin, Pelcitoclax, and Dasminapant in combination with a variety of drugs and investigational agents in selected tumor cell lines
The MDM2 inhibitor alrizomadlin, the Bcl-2/Bcl-xL inhibitor pelcitoclax, and the IAPs inhibitor dasminapant were evaluated both individually and in combination with standard of care and investigational anticancer small molecules within a complex spheroid model of solid tumors. . Complex spheroids include a stromal component modeled by human endothelial cells (HUVEC) and fibroblasts modeled by human mesenchymal stem cells (MSCs). The concentration ranges selected for each drug and investigational agent were based upon clinically achievable concentrations if the clinical Cmax of the agent was known.
Compounds. The drugs and investigational agents: alrizomadlin (APG-115; NSC831270), pelcitoclax (APG-1252; NSC835773), dasminapant (APG-1387;NSC834197), TAK-243 (NSC785004), copanlisib (NSC809693), olaparib (NSC753686), talazoparib (NSC767125), cobimetinib (NSC 768068), eltanexor (KPT-8602, NSC 794443), abemaciclib (NSC 768073), sotorasib (NSC818433), adagrasib (NSC 831453), MRTX-1133 (NSC 836407), Iadademestat (ORY1001, NSC 806812), and RMC-4630 (NSC839698), were obtained from the NCI Developmental Therapeutics Program Chemical Repository. The FDA-approved anticancer drug set is available from the Developmental Therapeutics Program at https://dtp.cancer.gov/organization/dscb/obtaining/available plates.htm. […] The stock solutions were prepared in dimethyl sulfoxide (DMSO, Sigma-Aldrich, St. Louis, MO, cat. D2650) at 800-fold the tested concentration and stored at -70 degrees C prior to their use. All drugs and investigational agents were tested over a range starting from a high concentration at or near the clinical Cmax and decreasing in half-log increments. If the clinical Cmax for an agent had not been determined, the highest concentration tested was 10 microM.
The patient-derived cancer (PDC) cell lines include five colon adenocarcinomas: 186277-243-T-J2-PDC, 616215-338-R-J1-PDC, 439559-082-T-J2-PDC, 463943-066-T-J2-PDC, and 519858-162-T-J1-PDC; three pancreatic carcinomas: 323965-272-R-J2-PDC, 521955-158-R6-J3-PDC, and 521955-158-R2-J5-PDC; two uterine sarcomas: 327498-152-R-J2-PDC and 993429-296-R-J1-PDC; two rhabdomyosarcomas: 755483-174-R-J1-PDC and 772245-204-R-J1-PDC; two soft tissue sarcomas: 126254-015-R-J1-PDC and 494315-158-R-J1-PDC; two malignant fibrous histiocytomas: 317291-083-R-J1-PDC and 596521-263-R-J1-PDC; two breast carcinomas: 171881-019-R-J1-PDC and 885512-296-R-J2-PDC; and one ovarian carcinoma: 6556581-035-R-J-PDC were obtained from the NCI PDMR, (https://pdmr.cancer.gov). The established cell lines HSSY-2 synovial sarcoma (RRID:CVCL 8719), SYO-1 synovial sarcoma (RRID:CVCL_7146), MPNST malignant peripheral neural sheath tumor were obtained from the Sloan Kettering Institute. The following established cell lines were purchased from the American Type Culture Collection (ATCC, Manassas, VA), Sor the received from the NCI repository:, PANC-1 pancreatic carcinoma (CRL-1469, RRID:CVCL_0480), OVCAR-5 ovarian carcinoma (RRID:CVCL_1628), OVCAR-8 ovarian carcinoma (RRID:CVCL_1629), , MCF-7 breast carcinoma (CRL-12584, RRID:CVCL_0031), MDA-MB-231 breast carcinoma (CRL-12532, RRID:CVCL_0062), NCI-H1876 small cell lung carcinoma (CRL-5902, RRID:CVCL_1503), NCI-H510A small cell lung carcinoma (HTB-184, RRID:CVCL_1565), NCI-H1417 (CRL-5869, RRID:CVCL_1469), and NCI-H196 small cell lung carcinoma (CRL-5823, RRID:CVCL_1509). Dr. Peter Houghton (Greehey Children's Cancer Research Institute, University of Texas Health Science Center, San Antonio, TX) provided Rh-18 rhabdomyosarcoma (RRID:CVCL_1659). Pooled donor human umbilical vein endothelial cells (HUVEC, Lonza, cat. CC-2519) and human mesenchymal stem cells (hMSC, Lonza, cat. PT-2501) were purchased from Lonza (Walkersville, MD).
Cell Culture. […]

[1] = second compound 0.00949 µM, first compound 0.0316 µM
[2] = second compound 0.00949 µM, first compound 0.1 µM
[3] = second compound 0.03 µM, first compound 0.0316 µM
[4] = second compound 0.03 µM, first compound 0.1 µM
[5] = second compound 0.0949 µM, first compound 0.0316 µM
[6] = second compound 0.0949 µM, first compound 0.1 µM
[7] = second compound 0.3 µM, first compound 0.0316 µM
[8] = second compound 0.3 µM, first compound 0.1 µM
[9] = second compound 0.949 µM, first compound 0.0316 µM
[10] = second compound 0.949 µM, first compound 0.1 µM
[11] = second compound 3 µM, first compound 0.0316 µM
[12] = second compound 3 µM, first compound 0.1 µM

Cn1ncnc1[C@H]1c2n[nH]c(=O)c3cc(F)cc(c23)N[C@@H]1c1ccc(F)cc1 + CCN1C(C(=O)NC23CCC(C(=O)O)(CC2)CC3)C(c2cccc(Cl)c2F)C2(C(=O)Nc3cc(Cl)ccc32)C12CCCCC2
IC50 (second compound 0.00949 µM): > 0.1 µM | IC50 (second compound 0.03 µM): > 0.1 µM | IC50 (second compound 0.0949 µM): > 0.1 µM | IC50 (second compound 0.3 µM): > 0.1 µM | IC50 (second compound 0.949 µM): > 0.1 µM | IC50 (second compound 3 µM): > 0.1 µM | viability, T/C (second compound 0.00949 µM, first compound 0.000316 µM): 101% | viability, T/C (second compound 0.00949 µM, first compound 0.001 µM): 89.6% | viability, T/C (second compound 0.00949 µM, first compound 0.00316 µM): 97.4% | viability, T/C (second compound 0.00949 µM, first compound 0.01 µM): 96.7% | viability, T/C [1]: 111% | viability, T/C [2]: 113% | viability, T/C (second compound 0.03 µM, first compound 0.000316 µM): 107% | viability, T/C (second compound 0.03 µM, first compound 0.001 µM): 89.5% | viability, T/C (second compound 0.03 µM, first compound 0.00316 µM): 98.4% | viability, T/C (second compound 0.03 µM, first compound 0.01 µM): 98.9% | viability, T/C [3]: 109% | viability, T/C [4]: 101% | viability, T/C (second compound 0.0949 µM, first compound 0.000316 µM): 93.4% | viability, T/C (second compound 0.0949 µM, first compound 0.001 µM): 98.1% | viability, T/C (second compound 0.0949 µM, first compound 0.00316 µM): 103% | viability, T/C (second compound 0.0949 µM, first compound 0.01 µM): 94.2% | viability, T/C [5]: 108% | viability, T/C [6]: 102% | viability, T/C (second compound 0.3 µM, first compound 0.000316 µM): 98.8% | viability, T/C (second compound 0.3 µM, first compound 0.001 µM): 96.2% | viability, T/C (second compound 0.3 µM, first compound 0.00316 µM): 109% | viability, T/C (second compound 0.3 µM, first compound 0.01 µM): 101% | viability, T/C [7]: 110% | viability, T/C [8]: 106% | viability, T/C (second compound 0.949 µM, first compound 0.000316 µM): 111% | viability, T/C (second compound 0.949 µM, first compound 0.001 µM): 117% | viability, T/C (second compound 0.949 µM, first compound 0.00316 µM): 106% | viability, T/C (second compound 0.949 µM, first compound 0.01 µM): 107% | viability, T/C [9]: 105% | viability, T/C [10]: 114% | viability, T/C (second compound 3 µM, first compound 0.000316 µM): 109% | viability, T/C (second compound 3 µM, first compound 0.001 µM): 123% | viability, T/C (second compound 3 µM, first compound 0.00316 µM): 124% | viability, T/C (second compound 3 µM, first compound 0.01 µM): 116% | viability, T/C [11]: 125% | viability, T/C [12]: 106%

O=C(c1cc(Cc2n[nH]c(=O)c3ccccc23)ccc1F)N1CCN(C(=O)C2CC2)CC1 + CCN1C(C(=O)NC23CCC(C(=O)O)(CC2)CC3)C(c2cccc(Cl)c2F)C2(C(=O)Nc3cc(Cl)ccc32)C12CCCCC2
IC50 (second compound 0.00949 µM): > 10 µM | IC50 (second compound 0.03 µM): > 10 µM | IC50 (second compound 0.0949 µM): > 10 µM | IC50 (second compound 0.3 µM): > 10 µM | IC50 (second compound 0.949 µM): > 10 µM | IC50 (second compound 3 µM): > 10 µM | viability, T/C [1]: 88.1% | viability, T/C [2]: 93.6% | viability, T/C (second compound 0.00949 µM, first compound 0.316 µM): 96.2% | viability, T/C (second compound 0.00949 µM, first compound 1 µM): 93.6% | viability, T/C (second compound 0.00949 µM, first compound 3.16 µM): 114% | viability, T/C (second compound 0.00949 µM, first compound 10 µM): 104% | viability, T/C [3]: 103% | viability, T/C [4]: 98.7% | viability, T/C (second compound 0.03 µM, first compound 0.316 µM): 102% | viability, T/C (second compound 0.03 µM, first compound 1 µM): 99.4% | viability, T/C (second compound 0.03 µM, first compound 3.16 µM): 102% | viability, T/C (second compound 0.03 µM, first compound 10 µM): 97.2% | viability, T/C [5]: 100% | viability, T/C [6]: 94.9% | viability, T/C (second compound 0.0949 µM, first compound 0.316 µM): 99.5% | viability, T/C (second compound 0.0949 µM, first compound 1 µM): 104% | viability, T/C (second compound 0.0949 µM, first compound 3.16 µM): 102% | viability, T/C (second compound 0.0949 µM, first compound 10 µM): 93.9% | viability, T/C [7]: 104% | viability, T/C [8]: 97.9% | viability, T/C (second compound 0.3 µM, first compound 0.316 µM): 111% | viability, T/C (second compound 0.3 µM, first compound 1 µM): 103% | viability, T/C (second compound 0.3 µM, first compound 3.16 µM): 105% | viability, T/C (second compound 0.3 µM, first compound 10 µM): 93.2% | viability, T/C [9]: 101% | viability, T/C [10]: 103% | viability, T/C (second compound 0.949 µM, first compound 0.316 µM): 110% | viability, T/C (second compound 0.949 µM, first compound 1 µM): 102% | viability, T/C (second compound 0.949 µM, first compound 3.16 µM): 111% | viability, T/C (second compound 0.949 µM, first compound 10 µM): 101% | viability, T/C [11]: 116% | viability, T/C [12]: 117% | viability, T/C (second compound 3 µM, first compound 0.316 µM): 107% | viability, T/C (second compound 3 µM, first compound 1 µM): 126% | viability, T/C (second compound 3 µM, first compound 3.16 µM): 121% | viability, T/C (second compound 3 µM, first compound 10 µM): 114%
